Assay results as given in ChEMBL document CHEMBL1201862, “PubChem BioAssay data set” (2004).
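Exposure lasted 48 hours, with cells grown in 96-well plates and compounds tested at five concentrations. Abbreviation: GI50, concentration required for 50% inhibition of growth.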 Calls of active or inactive are those of the source. Cut-off read from the data, not from the text of the source: active = GI50 up to about 1.1 µM and inactive = higher.

Columns and labels:
Test in all cases: NCI anticancer screen, dose series, 48 h
K562 = tested on: K562
SR = tested on: SR
UACC-62 = tested on: UACC-62
OVCAR-4 = tested on: OVCAR-4
LOX IMVI = tested on: LOX IMVI
OVCAR-8 = tested on: OVCAR-8
TK-10 = tested on: TK-10
M14 = tested on: M14
SK-MEL-2 = tested on: SK-MEL-2
NCI-H460 = tested on: NCI-H460
MDA-MB-231 = tested on: MDA-MB-231
DU-145 = tested on: DU-145
IGROV-1 = tested on: IGROV-1
MDA-MB-435 = tested on: MDA-MB-435
CAKI-1 = tested on: CAKI-1
SF-539 = tested on: SF-539
HCT-116 = tested on: HCT-116
MOLT-4 = tested on: MOLT-4
NCI-H23 = tested on: NCI-H23
MCF7 = tested on: MCF7

| SMILES | GI50 (K562) | GI50 (SR) | GI50 (UACC-62) | GI50 (OVCAR-4) | GI50 (LOX IMVI) | GI50 (OVCAR-8) | GI50 (TK-10) | GI50 (M14) | GI50 (SK-MEL-2) | GI50 (NCI-H460) | GI50 (MDA-MB-231) | GI50 (DU-145) | GI50 (IGROV-1) | GI50 (MDA-MB-435) | GI50 (CAKI-1) | GI50 (SF-539) | GI50 (HCT-116) | GI50 (MOLT-4) | GI50 (NCI-H23) | GI50 (MCF7) |
| --- | --- | --- | --- | --- | --- | --- | --- | --- | --- | --- | --- | --- | --- | --- | --- | --- | --- | --- | --- | --- |
| CCOc1ccc(NCC2CC/C(=C\C=C\c3ccccc3)C2=O)cc1 (centres undefined) | 3.61 µM (inactive) | 4 µM (inactive) | 24.4 µM (inactive) | 27.5 µM (inactive) | 11 µM (inactive) | 16.9 µM (inactive) | 19.9 µM (inactive) | 13.7 µM (inactive) | > 100 µM (inactive) | 32 µM (inactive) | 9.14 µM (inactive) | 33.2 µM (inactive) | 12.5 µM (inactive) | 12.2 µM (inactive) | 12.7 µM (inactive) | 18.9 µM (inactive) | 6.98 µM (inactive) | 5.2 µM (inactive) | 18 µM (inactive) | 3.18 µM (inactive) |
| Cc1ccc2c(c1)C(=O)c1nc(C)ccc1C2=O | 37.1 µM (inactive) | 47.1 µM (inactive) | 24.3 µM (inactive) | 28.2 µM (inactive) | 19.8 µM (inactive) | 27 µM (inactive) | 38.3 µM (inactive) | 32.7 µM (inactive) | > 100 µM (inactive) |  | 13.9 µM (inactive) | 32.3 µM (inactive) | 22.1 µM (inactive) | 21.6 µM (inactive) | 24.8 µM (inactive) | 21.7 µM (inactive) | 23.9 µM (inactive) | 69.3 µM (inactive) | 19.5 µM (inactive) | 25.6 µM (inactive) |
| COc1ccc(C(=O)c2[nH]c(Nc3cc(C)ccn3)c(C(=S)Nc3ccccc3)c2N)cc1 | 25.1 µM (inactive) | 15.2 µM (inactive) | 12.9 µM (inactive) | 10.9 µM (inactive) | 18.7 µM (inactive) | 17.2 µM (inactive) | 20 µM (inactive) | 20.5 µM (inactive) | 10.1 µM (inactive) | 6.04 µM (inactive) | 20 µM (inactive) | 36.6 µM (inactive) | 12.2 µM (inactive) | 19.4 µM (inactive) | 36.6 µM (inactive) | 18.3 µM (inactive) | 20.7 µM (inactive) | 23.4 µM (inactive) | 21.9 µM (inactive) | 20.4 µM (inactive) |
| COCOC1/C=C/CCCC#C[C@H](C)C(=O)CC1 (some centres undefined) | 2.7 µM (inactive) | 3.46 µM (inactive) | 10 µM (inactive) | 7.83 µM (inactive) | 3.05 µM (inactive) | 14.5 µM (inactive) | 15.2 µM (inactive) | 8.15 µM (inactive) | 15 µM (inactive) | 8.73 µM (inactive) | 4.25 µM (inactive) | 14.6 µM (inactive) | 9.27 µM (inactive) | 7 µM (inactive) | 11.5 µM (inactive) | 16.2 µM (inactive) | 2.33 µM (inactive) | 2.96 µM (inactive) | 5.97 µM (inactive) | 5.55 µM (inactive) |
| CCCCc1ccc(Nc2nc(Cl)c3ccn(C4CC(Oc5ccc(C)cc5)C(COc5ccc(C)cc5)O4)c3n2)cc1 (centres undefined) | > 46.5 µM (inactive) | > 10 µM (inactive) | 24.5 µM (inactive) | > 31.6 µM (inactive) | > 46.5 µM (inactive) | > 46.5 µM (inactive) | 30.3 µM (inactive) | > 46.5 µM (inactive) | > 46.5 µM (inactive) | > 31.6 µM (inactive) | > 46.5 µM (inactive) | > 46.5 µM (inactive) | 22.9 µM (inactive) | > 46.5 µM (inactive) | > 46.5 µM (inactive) | > 46.5 µM (inactive) | > 46.5 µM (inactive) | > 46.5 µM (inactive) | 24.8 µM (inactive) | > 46.5 µM (inactive) |
| Cc1ccc(S(=O)(=O)N/N=C2/CCC(C(C)(C)C)CC2Br)cc1 (centres undefined) | 19.8 µM (inactive) | 39 µM (inactive) | > 10 µM (inactive) | 19.5 µM (inactive) | 16.4 µM (inactive) | 26.4 µM (inactive) | 31 µM (inactive) | 17.9 µM (inactive) | 13.7 µM (inactive) | 34.1 µM (inactive) | 37.9 µM (inactive) | 42.6 µM (inactive) | 38.6 µM (inactive) | 18.7 µM (inactive) | 28.1 µM (inactive) | 21.2 µM (inactive) | 23.1 µM (inactive) | 20 µM (inactive) | 28 µM (inactive) | 22.7 µM (inactive) |
| Cc1cc(NCc2ccccc2)c2ccccc2[n+]1CCCCCCCCCC[n+]1c(C)cc(NCc2ccccc2)c2ccccc21.[O-][Cl+3]([O-])([O-])[O-].[O-][Cl+3]([O-])([O-])[O-] | 0.271 µM (active) | 0.223 µM (active) | 0.31 µM (active) | 1.3 µM (inactive) | 0.238 µM (active) | 0.431 µM (active) | 1.21 µM (inactive) | 1.21 µM (inactive) | 0.458 µM (active) | 0.228 µM (active) | 0.472 µM (active) | 0.692 µM (active) | 2.98 µM (inactive) | 0.39 µM (active) | 1.44 µM (inactive) | 0.308 µM (active) | 0.324 µM (active) | 0.423 µM (active) | 0.247 µM (active) | 0.318 µM (active) |
